Among the test systems are KM12 colon; HCC-2998 colon; SNB-19 CNS; ACHN renal; MALME-3M melanoma; HL-60(TB) leukemia; T-47D breast; RPMI-8226 leukemia; SN12C renal; NCI-H226 lung.
What all share (assay): NCI tumour cell line growth inhibition, 48 h

SMILES strings stand for the structures.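 Compound exposure: 48 hours, 5 concentrations, 96-well plates. GI50: concentration for 50% inhibition of growth. TGI: total growth inhibition.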

In the case of `CCOC(=O)c1c(-c2ccc(Cl)cc2)c(C#N)c(=S)n(C2OC(COC(C)=O)C(OC(C)=O)C(OC(C)=O)C2OC(C)=O)c1-c1ccccc1` (stereo not drawn), the TGI with KM12 colon, in the experiment with HCC-2998 colon, in the experiment with SNB-19 CNS, in the experiment with ACHN renal, with MALME-3M melanoma and with HL-60(TB) leukemia was over 100 µM in each case. The TGI in the experiment on T-47D breast, in the experiment with RPMI-8226 leukemia and with SN12C renal was over 100 µM in each case.
Regarding `Oc1ccc(Cl)cc1-c1cc(-c2ccccc2)nc(NCN2CCCCC2)n1`, the TGI in the experiment on KM12 colon, in the experiment with HCC-2998 colon, in the experiment on SNB-19 CNS, with ACHN renal, in the experiment on MALME-3M melanoma and in the experiment on HL-60(TB) leukemia was over 100 µM each time. Also, the TGI in the experiment with T-47D breast, with RPMI-8226 leukemia and in the experiment on SN12C renal was over 100 µM throughout.
As for `O=C(NC1CCCCC1)c1cc2ccccc2cc1O`, the TGI was over 100 µM with KM12 colon; 58.8 µM with HCC-2998 colon; over 100 µM in the experiment on SNB-19 CNS; 41 µM in the experiment with NCI-H226 lung; 96.1 µM in the experiment on HL-60(TB) leukemia; over 100 µM with T-47D breast. Further, the TGI with RPMI-8226 leukemia stood at 46.6 µM.
As for `O=C(O)C[C@@H]1[C@@H](O)[C@@H](O)CN2C(=O)c3ccccc3[C@H]12`, the TGI in the experiment on KM12 colon, in the experiment on HCC-2998 colon, in the experiment with SNB-19 CNS, with ACHN renal, with NCI-H226 lung and in the experiment with MALME-3M melanoma was over 100 µM each time. Further, the TGI with T-47D breast, with RPMI-8226 leukemia and in the experiment with SN12C renal was over 100 µM in each case.
Turning to `O=c1[nH]c2ccccc2c(O)c1/C=N/C(=S)NCc1ccccc1`, the TGI in the experiment on KM12 colon, in the experiment on SNB-19 CNS, in the experiment on ACHN renal, with NCI-H226 lung, with HL-60(TB) leukemia and in the experiment with T-47D breast was over 100 µM in each case. Besides, in the experiment on SN12C renal, the TGI was over 100 µM.
Regarding `COC12CCCN1c1ccn(Cc3ccccc3)c(=O)c1C2=O` (stereo not drawn), the TGI in the experiment on KM12 colon, in the experiment on HCC-2998 colon, in the experiment with SNB-19 CNS, in the experiment on ACHN renal, in the experiment with NCI-H226 lung and with MALME-3M melanoma was over 100 µM in each case. Further, the TGI in the experiment on HL-60(TB) leukemia, in the experiment with T-47D breast and with SN12C renal was over 100 µM each time.
In the case of `CCCCCCCC(CC(=O)NC(CO)C(=O)NC(CO)CC(C)C)OC(=O)CC(CCCCCCC)OC(=O)CC(CCCCCCC)OC1OC(C)C(O)C(OC2OC(C)C(O)C(O)C2OC(C)=O)C1O` (stereo not drawn), the TGI turned out to be 10.8 µM in the experiment with KM12 colon; 25.8 µM with HCC-2998 colon; 20.8 µM in the experiment with SNB-19 CNS; 28.9 µM with ACHN renal; 39 µM in the experiment with NCI-H226 lung; 23.2 µM in the experiment with MALME-3M melanoma. Also, the TGI in the experiment on HL-60(TB) leukemia turned out to be 10.4 µM; with T-47D breast, 21 µM; in the experiment on SN12C renal it was 16.8 µM.
`CCCCCCNC(=O)CCC(NC(=O)c1ccc(N(C)Cc2cnc3nc(N)nc(N)c3n2)cc1)C(=O)NCCCCCC` (stereo not drawn): the TGI in the experiment with KM12 colon, in the experiment on HCC-2998 colon, in the experiment on SNB-19 CNS, with ACHN renal, in the experiment with NCI-H226 lung and with T-47D breast was over 100 µM throughout. The TGI in the experiment with RPMI-8226 leukemia and in the experiment on SN12C renal was over 100 µM throughout.
`NNc1nncc2[nH]cnc12`: the TGI in the experiment with KM12 colon, with SNB-19 CNS, in the experiment on ACHN renal, with NCI-H226 lung, in the experiment on HL-60(TB) leukemia and in the experiment with T-47D breast was over 100 µM throughout. Moreover, the TGI with RPMI-8226 leukemia and in the experiment with SN12C renal was over 100 µM in each case.
Regarding `CCOC(=O)c1c(Br)c(-c2ccc(OC)cc2)c(Br)n1C`, the TGI with KM12 colon was 38.1 µM; in the experiment with SNB-19 CNS, 97.7 µM; in the experiment with ACHN renal, over 100 µM; in the experiment on NCI-H226 lung, 87.5 µM; in the experiment with MALME-3M melanoma, 44.4 µM; in the experiment on HL-60(TB) leukemia it was 14.1 µM. Also, the figures for the TGI in the experiment with T-47D breast, with RPMI-8226 leukemia and with SN12C renal were 82.1 µM, over 100 µM and 49.2 µM, respectively. Moreover, the GI50 with MALME-3M melanoma is 9.99 µM.
As to `CC1(C)C(CCO)CC1n1cc(I)c(=O)[nH]c1=O` (stereo not drawn), the TGI in the experiment on KM12 colon, with HCC-2998 colon, in the experiment with SNB-19 CNS, in the experiment on ACHN renal, in the experiment on NCI-H226 lung and with T-47D breast was over 100 µM each time. Also, the TGI in the experiment on RPMI-8226 leukemia and in the experiment on SN12C renal was over 100 µM each time.
Turning to `CC(=O)OC(Cc1ccc2ccccc2n1)(C(F)(F)F)C(F)(F)F`, the TGI in the experiment with KM12 colon came to 12.7 µM; in the experiment on HCC-2998 colon, 7.57 µM; with SNB-19 CNS, 14.7 µM; in the experiment on ACHN renal, 14.4 µM; in the experiment on NCI-H226 lung, 4.77 µM; in the experiment with MALME-3M melanoma, 5.21 µM. The TGI was 0.352 µM in the experiment with HL-60(TB) leukemia, 0.912 µM in the experiment on T-47D breast and 7.27 µM in the experiment on SN12C renal.
`COC(OC)C1OCC(n2cc(F)c(=O)[nH]c2=O)C1O` (stereo not drawn): the TGI in the experiment on KM12 colon, in the experiment on HCC-2998 colon, in the experiment with SNB-19 CNS, with ACHN renal, in the experiment on NCI-H226 lung and in the experiment with MALME-3M melanoma was over 100 µM each time. The TGI with T-47D breast, in the experiment on RPMI-8226 leukemia and in the experiment on SN12C renal was over 100 µM each time.
`COc1cc(C2SC(C)C(=O)N2c2ccc(-c3csc(NS(=O)(=O)c4ccc(Cl)c(OC)c4)n3)cc2)ccc1O` (stereo not drawn): the TGI in the experiment on KM12 colon is 48.3 µM; in the experiment on SNB-19 CNS, over 100 µM; with ACHN renal, over 100 µM; in the experiment with NCI-H226 lung, over 100 µM; in the experiment with MALME-3M melanoma, 82.4 µM; with HL-60(TB) leukemia, 95.7 µM. For the same molecule, the TGI is over 100 µM in the experiment with T-47D breast and 56.7 µM in the experiment on SN12C renal.
For `Cc1cn(CCCCCCC2=NCCCN2)c(=O)[nH]c1=O`, the TGI with KM12 colon, with HCC-2998 colon, in the experiment with SNB-19 CNS, with ACHN renal, in the experiment with NCI-H226 lung and in the experiment on MALME-3M melanoma was over 100 µM throughout. Also, the TGI with T-47D breast, in the experiment on RPMI-8226 leukemia and in the experiment with SN12C renal was over 100 µM throughout.

The record behind these values is PubChem BioAssay (NCI).
